# Reference: patent publication US20250195855A1, “INGESTIBLE DEVICE FOR DELIVERY OF THERAPEUTIC AGENT TO THE GASTROINTESTINAL TRACT” (BIORA THERAPEUTICS, INC., priority 2022, published 2025)
# Experiments:
# [1] = parameters: species or system female Yucatan swine; conditions: in vivo
# Protocol: The above externally-triggered study was also performed using semaglutide, a glucagon-like-peptide-1 (GLP-1) receptor agonist that stimulates insulin secretion and suppress glucagon release. Devices filled with ˜0.96 mg of semaglutide were administrated by intraduodenal (ID) endoscopic placement and were externally triggered in the proximal small intestine of the female Yucatan swine. Plasma samples were then collected from 0 to 240 hours post-dose. Systemic concentrations of semaglutide were measured using LC-MS-MS to evaluate the PK of semaglutide with the OBDS device via ID administration (animals 1003-ID; 1004-ID; 1005-ID; 1009-ID; 10053-ID and 1055-ID in FIG. 87) compared with the IV control (animal 1015-IV in FIG. 87).
# Seven out of eight (7/8) devices were successfully advanced through the pyloric sphincter via endoscopic placement and triggered in the proximal small intestine.
# [2] = 40 mg bi-weekly dose; cited from earlier work
detectable drug levels up to (post-dosing) [1],Compound,clinical signs before or after dosing [1],"bioavailability, subcutaneous route over IV, estimated in human trials [2] [%]"
up to 10 days,CC[C@H](C)[C@H](NC(=O)[C@H](Cc1ccccc1)NC(=O)[C@H](CCC(=O)O)NC(=O)[C@H](CCCCNC(=O)COCCOCCNC(=O)COCCOCCNC(=O)CC[C@H](NC(=O)CCCCCCCCCCCCCCCCC(=O)O)C(=O)O)NC(=O)[C@H](C)NC(=O)[C@H](C)NC(=O)[C@H](CCC(N)=O)NC(=O)CNC(=O)[C@H](CCC(=O)O)NC(=O)[C@H](CC(C)C)NC(=O)[C@H](Cc1ccc(O)cc1)NC(=O)[C@H](CO)NC(=O)[C@H](CO)NC(=O)[C@@H](NC(=O)[C@H](CC(=O)O)NC(=O)[C@H](CO)NC(=O)[C@@H](NC(=O)[C@H](Cc1ccccc1)NC(=O)[C@@H](NC(=O)CNC(=O)[C@H](CCC(=O)O)NC(=O)C(C)(C)NC(=O)[C@@H](N)Cc1cnc[nH]1)[C@@H](C)O)[C@@H](C)O)C(C)C)C(=O)N[C@@H](C)C(=O)N[C@@H](Cc1c[nH]c2ccccc12)C(=O)N[C@@H](CC(C)C)C(=O)N[C@H](C(=O)N[C@@H](CCCNC(=N)N)C(=O)NCC(=O)N[C@@H](CCCNC(=N)N)C(=O)NCC(=O)O)C(C)C [semaglutide],No significant clinical signs were observed,
,adalimumab,,64
